The record followed here is patent US20250235434A1, “RIFABUTIN ANALOGS FOR THE TREATMENT OF DISEASE” (BIOVERSYS AG, priority 2022, published 2025).

Common to all, as to assay type: cell-based
Test [1] concerns M. abscessus (ATCC 19977). Nature of the test: MIC by broth microdilution against M. abscessus. The following applies: Mycobacteroides abscessus. (In general: Dilution methods test growth across graded concentrations, often in twofold steps.)
The subject of test [2] is A. baumannii (HUMC1 strain). Put plainly: MIC by broth microdilution against A. baumannii. The following applies: Acinetobacter baumannii, RPMI medium supplemented with 10% FCS, 35° C. for 20 hours, visual reading.
Test [3] relates to S. aureus (UAMS-1625 strain). Put plainly: MIC by broth microdilution against S. aureus. The following applies: Staphylococcus aureus, 20 h, read-out: MIC S. aureus.
For test [4], the system named is M. tuberculosis H37Rv (ATCC 27294). Put plainly: microbe, parasite or virus in culture. The following applies: Mycobacterium tuberculosis, 120 h.
The next test deals with M. kansasii (ATCC 12478). Put plainly: MIC against M. kansasii (resazurin assay). The following applies: Mycobacterium kansasii, ATCC12478, 168 h, Middlebrook 7H9 + ADC, 90% growth inhibition, 7 days.
Test [5] relates to M. smegmatis (ATCC 700084). Nature of the test: MIC against M. smegmatis (resazurin assay). The following applies: Mycolicibacterium smegmatis, ATCC700084, Middlebrook 7H9 + ADC, 90% growth inhibition, 20 h.
Another test has as its system M. avium (ATCC 25291). Nature of the test: MIC against M. avium (resazurin assay). The following applies: Mycobacterium avium, ATCC25291, 168 h, Middlebrook 7H9 + ADC, 90% growth inhibition, 7 days. In general terms: The colour change of resazurin is a common sign of viable cells or microbes.
For another test, the system named is M. xenopi (ATCC 19250). Put plainly: MIC against M. xenopi (resazurin assay). The following applies: Mycobacterium xenopi, ATCC19250, 168 h, Middlebrook 7H9 + ADC, 90% growth inhibition, 7 days.
Setting [6] is: ATCC19977, 20 h, ATCC 19977, Middlebrook 7H9 broth with ADC supplement, visual reading, read-out: MIC M. abscessus.

Structures are written as SMILES. ≈ marks a conversion by molar mass, not a printed value. Like-named read-outs stand apart in the source and are kept apart here. A value given as a limit tells only on which side of the number the result lay.

As to `CO[C@H]1/C=C/O[C@@]2(C)Oc3c(C)c(O)c4c(c3C2=O)C2=NC3(CCN(CC(C)C)CC3)NC2=C(NC(=O)/C(C)=C\C=C\[C@H](C)[C@H](O)[C@@H](C)[C@@H](O)[C@@H](C)[C@H](OC(=O)CNCC2CCN(C)CC2)[C@@H]1C)C4=O` [Compound 1], the MIC is 2 µg/mL (≈ 2.06 µM) in test [1] (setting [6]), at most 0.002 µg/mL in test [2] and 0.06 µg/mL (≈ 0.0617 µM) in test [3].
For the compound `CO[C@H]1/C=C/O[C@@]2(C)Oc3c(C)c(O)c4c(c3C2=O)C2=NC3(CCN(CC(C)C)CC3)NC2=C(NC(=O)/C(C)=C\C=C\[C@H](C)[C@H](O)[C@@H](C)[C@@H](O)[C@@H](C)[C@H](OC(=O)CNC2CCN(C)CC2)[C@@H]1C)C4=O` [Compound 2], the MIC is 2 µg/mL (≈ 2.09 µM) in test [1] (setting [6]); 0.02 µg/mL (≈ 0.0209 µM) in test [4]; 0.02 µg/mL in the test with M. kansasii (ATCC 12478); at most 0.002 µg/mL in test [2]; 0.06 µg/mL (≈ 0.0626 µM) in test [3]; 0.03 µg/mL in test [5]. In addition, the MIC turned out to be 1.2 µg/mL in the test on M. avium (ATCC 25291) and 0.08 µg/mL in the test on M. xenopi (ATCC 19250).
Consider `CO[C@H]1/C=C/O[C@@]2(C)Oc3c(C)c(O)c4c(c3C2=O)C2=NC3(CCN(CC(C)C)CC3)NC2=C(NC(=O)/C(C)=C\C=C\[C@H](C)[C@H](O)[C@@H](C)[C@@H](O)[C@@H](C)[C@H](OC(=O)CN2CCC(N(C)C)CC2)[C@@H]1C)C4=O` [Compound 3], for which the MIC in test [1] (setting [6]) was 1 µg/mL (≈ 1.03 µM); in test [4] it was 0.008 µg/mL (≈ 0.00822 µM); in the test on M. kansasii (ATCC 12478), 0.01 µg/mL; in test [2], at most 0.002 µg/mL; in test [3], 0.03 µg/mL (≈ 0.0308 µM); in test [5], 0.03 µg/mL. The MIC in the test with M. avium (ATCC 25291) came out at 1.2 µg/mL; with M. xenopi (ATCC 19250), 0.07 µg/mL.
With `CO[C@H]1/C=C/O[C@@]2(C)Oc3c(C)c(O)c4c(c3C2=O)C2=NC3(CCN(CC(C)C)CC3)NC2=C(NC(=O)/C(C)=C\C=C\[C@H](C)[C@H](O)[C@@H](C)[C@@H](O)[C@@H](C)[C@H](OC(=O)CN2CCCCC2)[C@@H]1C)C4=O` [Compound 4], the MIC in test [1] (setting [6]) came to 4 µg/mL (≈ 4.3 µM); in test [2], 0.004 µg/mL (≈ 0.0043 µM); in test [3], 0.06 µg/mL (≈ 0.0645 µM).
Consider `CO[C@H]1/C=C/O[C@@]2(C)Oc3c(C)c(O)c4c(c3C2=O)C2=NC3(CCN(CC(C)C)CC3)NC2=C(NC(=O)/C(C)=C\C=C\[C@H](C)[C@H](O)[C@@H](C)[C@@H](O)[C@@H](C)[C@H](OC(=O)CN2CCN(c3ccccc3)CC2)[C@@H]1C)C4=O` [Compound 7], for which the MIC in test [1] (setting [6]) turned out to be 0.5 µg/mL (≈ 0.496 µM); in test [2] it was 0.06 µg/mL (≈ 0.0596 µM); in test [3] it was 0.5 µg/mL (≈ 0.496 µM).
Consider `CO[C@H]1/C=C/O[C@@]2(C)Oc3c(C)c(O)c4c(c3C2=O)C2=NC3(CCN(CC(C)C)CC3)NC2=C(NC(=O)/C(C)=C\C=C\[C@H](C)[C@H](O)[C@@H](C)[C@@H](O)[C@@H](C)[C@H](OC(=O)CNCCN2CCCCC2)[C@@H]1C)C4=O` [Compound 8], for which the MIC was 1 µg/mL (≈ 1.03 µM) in test [1] (setting [6]), at most 0.002 µg/mL in test [2] and 0.06 µg/mL (≈ 0.0617 µM) in test [3].
The matching figures for `CO[C@H]1/C=C/O[C@@]2(C)Oc3c(C)c(O)c4c(c3C2=O)C2=NC3(CCN(CC(C)C)CC3)NC2=C(NC(=O)/C(C)=C\C=C\[C@H](C)[C@H](O)[C@@H](C)[C@@H](O)[C@@H](C)[C@H](OC(=O)CNCCN2CCN(C)CC2)[C@@H]1C)C4=O` [Compound 9]: 2 µg/mL (≈ 2.02 µM), at most 0.002 µg/mL and 0.06 µg/mL (≈ 0.0607 µM).
For `CO[C@H]1/C=C/O[C@@]2(C)Oc3c(C)c(O)c4c(c3C2=O)C2=NC3(CCN(CC(C)C)CC3)NC2=C(NC(=O)/C(C)=C\C=C\[C@H](C)[C@H](O)[C@@H](C)[C@@H](O)[C@@H](C)[C@H](OC(=O)CNCCCN2CCOCC2)[C@@H]1C)C4=O` [Compound 11] the same measures were 2 µg/mL (≈ 2.02 µM), 0.008 µg/mL (≈ 0.00809 µM) and 0.06 µg/mL (≈ 0.0607 µM).
Consider `CO[C@H]1/C=C/O[C@@]2(C)Oc3c(C)c(O)c4c(c3C2=O)C2=NC3(CCN(CC(C)C)CC3)NC2=C(NC(=O)/C(C)=C\C=C\[C@H](C)[C@H](O)[C@@H](C)[C@@H](O)[C@@H](C)[C@H](OC(=O)CNCCN(C)C)[C@@H]1C)C4=O` [Compound 13], for which the MIC was 2 µg/mL (≈ 2.14 µM) in test [1] (setting [6]), at most 0.002 µg/mL in test [2] and 0.03 µg/mL (≈ 0.0321 µM) in test [3].
The matching figures for `CO[C@H]1/C=C/O[C@@]2(C)Oc3c(C)c(O)c4c(c3C2=O)C2=NC3(CCN(CC(C)C)CC3)NC2=C(NC(=O)/C(C)=C\C=C\[C@H](C)[C@H](O)[C@@H](C)[C@@H](O)[C@@H](C)[C@H](OC(=O)CNCC(C)C)[C@@H]1C)C4=O` [Compound 17]: 4 µg/mL (≈ 4.36 µM), 0.008 µg/mL (≈ 0.00871 µM) and 0.06 µg/mL (≈ 0.0653 µM).
Consider `CO[C@H]1/C=C/O[C@@]2(C)Oc3c(C)c(O)c4c(c3C2=O)C2=NC3(CCN(CC(C)C)CC3)NC2=C(NC(=O)/C(C)=C\C=C\[C@H](C)[C@H](O)[C@@H](C)[C@@H](O)[C@@H](C)[C@H](OC(=O)CN2CCC(Cc3ccccc3)CC2)[C@@H]1C)C4=O` [Compound 21], for which the values for the MIC in test [1] (setting [6]), in test [2] and in test [3] were 2 µg/mL (≈ 1.96 µM), 0.125 µg/mL (≈ 0.123 µM) and 4 µg/mL (≈ 3.92 µM), respectively.
The matching figures for `COc1cc(CC2CCN(CC(=O)O[C@H]3[C@H](C)[C@H](O)[C@H](C)[C@@H](O)[C@@H](C)/C=C/C=C(/C)C(=O)NC4=C5NC6(CCN(CC(C)C)CC6)N=C5c5c(c(O)c(C)c6c5C(=O)[C@@](C)(O/C=C/[C@H](OC)[C@H]3C)O6)C4=O)CC2)cc(C(F)(F)F)c1` [Compound 22]: 4 µg/mL (≈ 3.58 µM), 0.25 µg/mL (≈ 0.224 µM) and 4 µg/mL (≈ 3.58 µM).
Regarding `CO[C@H]1/C=C/O[C@@]2(C)Oc3c(C)c(O)c4c(c3C2=O)C2=NC3(CCN(CC(C)C)CC3)NC2=C(NC(=O)/C(C)=C\C=C\[C@H](C)[C@H](O)[C@@H](C)[C@@H](O)[C@@H](C)[C@H](OC(=O)CN2CCC(C(O)c3nccn3C)CC2)[C@@H]1C)C4=O` (some centres unmarked) [Compound 23], the MIC came to 1 µg/mL (≈ 0.961 µM) in test [1] (setting [6]), 0.004 µg/mL (≈ 0.00385 µM) in test [2] and 0.125 µg/mL (≈ 0.12 µM) in test [3].
For `CO[C@H]1/C=C/O[C@@]2(C)Oc3c(C)c(O)c4c(c3C2=O)C2=NC3(CCN(CC(C)C)CC3)NC2=C(NC(=O)/C(C)=C\C=C\[C@H](C)[C@H](O)[C@@H](C)[C@@H](O)[C@@H](C)[C@H](OC(=O)CN2CCC(NC(=O)OC(C)(C)C)CC2)[C@@H]1C)C4=O` [Compound 27] the same measures were 0.25 µg/mL (≈ 0.239 µM), 0.008 µg/mL (≈ 0.00765 µM) and 0.125 µg/mL (≈ 0.12 µM).
For `CO[C@H]1/C=C/O[C@@]2(C)Oc3c(C)c(O)c4c(c3C2=O)C2=NC3(CCN(CC(C)C)CC3)NC2=C(NC(=O)/C(C)=C\C=C\[C@H](C)[C@H](O)[C@@H](C)[C@@H](O)[C@@H](C)[C@H](OC(=O)CN2CCC(N3CCn5ccnc5C3)CC2)[C@@H]1C)C4=O` [Compound 30] the same measures were 1 µg/mL (≈ 0.951 µM), at most 0.002 µg/mL and 0.06 µg/mL (≈ 0.0571 µM).
For `CO[C@H]1/C=C/O[C@@]2(C)Oc3c(C)c(O)c4c(c3C2=O)C2=NC3(CCN(CC(C)C)CC3)NC2=C(NC(=O)/C(C)=C\C=C\[C@H](C)[C@H](O)[C@@H](C)[C@@H](O)[C@@H](C)[C@H](OC(=O)CN2CC(Nc3ccc(F)cc3)C2)[C@@H]1C)C4=O` [Compound 31] the same measures were 4 µg/mL (≈ 3.96 µM), 0.008 µg/mL (≈ 0.00791 µM) and 0.06 µg/mL (≈ 0.0593 µM).
For `CO[C@H]1/C=C/O[C@@]2(C)Oc3c(C)c(O)c4c(c3C2=O)C2=NC3(CCN(CC(C)C)CC3)NC2=C(NC(=O)/C(C)=C\C=C\[C@H](C)[C@H](O)[C@@H](C)[C@@H](O)[C@@H](C)[C@H](OC(=O)CN2CC(n3cccc3)C2)[C@@H]1C)C4=O` [Compound 32], the MIC in test [1] (setting [6]) was 2 µg/mL (≈ 2.07 µM); in test [2], 0.008 µg/mL (≈ 0.00827 µM); in test [3] it was 0.03 µg/mL (≈ 0.031 µM).
For `CC[N+](CC)(CC)CC(=O)O[C@H]1[C@H](C)[C@H](O)[C@H](C)[C@@H](O)[C@@H](C)/C=C/C=C(/C)C(=O)NC2=C3NC4(CCN(CC(C)C)CC4)N=C3c3c(c(O)c(C)c4c3C(=O)[C@@](C)(O/C=C/[C@H](OC)[C@H]1C)O4)C2=O` [Compound 36] the same measures were 2 µg/mL, at most 0.002 µg/mL and 0.125 µg/mL.
For `CO[C@H]1/C=C/O[C@@]2(C)Oc3c(C)c(O)c4c(c3C2=O)C2=NC3(CCN(CC(C)C)CC3)NC2=C(NC(=O)/C(C)=C\C=C\[C@H](C)[C@H](O)[C@@H](C)[C@@H](O)[C@@H](C)[C@H](OC(=O)C[n+]2ccccc2)[C@@H]1C)C4=O` [Compound 37] the same measures were 2 µg/mL, 0.004 µg/mL and 0.25 µg/mL.
The matching figures for `CO[C@H]1/C=C/O[C@@]2(C)Oc3c(C)c(O)c4c(c3C2=O)C2=NC3(CCN(CC(C)C)CC3)NC2=C(NC(=O)/C(C)=C\C=C\[C@H](C)[C@H](O)[C@@H](C)[C@@H](O)[C@@H](C)[C@H](OC(=O)C[n+]2ccc(C)cc2)[C@@H]1C)C4=O` [Compound 38]: 2 µg/mL, 0.004 µg/mL and 0.25 µg/mL.
With `CO[C@H]1/C=C/O[C@@]2(C)Oc3c(C)c(O)c4c(O)c(c(/C=N/N5CCN(C)CC5)c(O)c4c3C2=O)NC(=O)/C(C)=C\C=C\[C@H](C)[C@H](O)[C@@H](C)[C@@H](O)[C@@H](C)[C@H](OC(C)=O)[C@@H]1C` [Rifampicin, reference compound], the MIC in test [1] (ATCC19977, tested M. abscessus strains, read-out: MIC value on M. abscessus) was above 32 µg/mL.
